Measurements taken from patent US6900181B2, “Pharmaceutical composition” (Renovo Limited, priority 1995, dated 2005).

How the values were obtained:
[1] = test system: linear full thickness incisions on the dorsal skin; assay: Rat full thickness incisional wound healing and scarring model, intradermal injection to the wound margins; type: in vivo, Sprague Dawley rats; details: for effect on wound healing (histological analysis): 10, 20, 40 mM at wounding and daily for following seven days, compared with PBS controls; for immunocytochemical analysis (fibronectin staining, monocyte/macrophage profiles): vs PBS controls; for histological analysis: 40 days post wounding; for scarring / dermal architecture (histology): 80 days post wounding
Experimental: Adult male Sprague Dawley rats (200-250 g) were anaesthetised using equal parts halothane, nitrous oxide and oxygen. Four linear full thickness incisions, 1 cm in length to the depth of the panniculus carnosus were made on the dorsal skin, 1 cm from the midline and 5 and 8 cm from the base of the skull. The wounds were left unsutured to heal by secondary intention. Experimental treatments were administered by intradermal injection to the wound margins (50 μl down each wound margin). At selected time points animals were killed by chloroform overdose. Wounds were excised from the surrounding tissue and bisected. Half the wounds were rapidly frozen in OCT for cryosection and immunoctyochemistry and half fixed in formaldehyde for wax embedding and histology. Wax sections were routinely stained with haematoxylin and eosin, picrosirius red and Massons Lille trichrome, to display collagen fibre thickness, density and orientation to enable assessment of scar quality. […] A range of doses (10 mM, 20 mM and 40 mM) was studied for each sugar, with PBS (phosphate buffered saline) as a control. Treatments were administered at the time of wounding and each day for the following seven days. Two animals per dose were studied at each of the three time points (7, 40 and 80 days post wounding) for each compound. […]. […] Treatments were administered at the time of wounding and each day for the following two days. One animal per dose was studied at each of the two time points (7 and 80 days post wounding). Total n=4. […] Department of Pharmacy, University of Manchester. A single concentration (20 mM) of this compound was studied, with PBS as a control. The time of administration varied to the previous experiments. Animals were split into three groups and treated on day 0 alone, days 0, 2 and 4, or days 0 to 7 inclusive. Two animals per treatment regime were studied at each of the three time points (3, 7 and 80 days) Total n=18.

wounds = assay: Experimental work treating wounds with other sugars; type: in vivo; details: for effect on wound healing: compared with controls; for effect on scarring: in vivo
Excerpt: Galactose-6-phosphate and glycerol-3-phosphate have no effect upon either wound healing or scarring.

[2] = biological target: M6P/IGF II (insulin-like growth factor II) receptor (Homo sapiens, UniProt P11717); assay: ELISA-type assay using purified M6P/IGF II receptor; type: binding; details: initial results; compared with M6P
Sequence of M6P/IGF II (insulin-like growth factor II) receptor (P11717 41-2491): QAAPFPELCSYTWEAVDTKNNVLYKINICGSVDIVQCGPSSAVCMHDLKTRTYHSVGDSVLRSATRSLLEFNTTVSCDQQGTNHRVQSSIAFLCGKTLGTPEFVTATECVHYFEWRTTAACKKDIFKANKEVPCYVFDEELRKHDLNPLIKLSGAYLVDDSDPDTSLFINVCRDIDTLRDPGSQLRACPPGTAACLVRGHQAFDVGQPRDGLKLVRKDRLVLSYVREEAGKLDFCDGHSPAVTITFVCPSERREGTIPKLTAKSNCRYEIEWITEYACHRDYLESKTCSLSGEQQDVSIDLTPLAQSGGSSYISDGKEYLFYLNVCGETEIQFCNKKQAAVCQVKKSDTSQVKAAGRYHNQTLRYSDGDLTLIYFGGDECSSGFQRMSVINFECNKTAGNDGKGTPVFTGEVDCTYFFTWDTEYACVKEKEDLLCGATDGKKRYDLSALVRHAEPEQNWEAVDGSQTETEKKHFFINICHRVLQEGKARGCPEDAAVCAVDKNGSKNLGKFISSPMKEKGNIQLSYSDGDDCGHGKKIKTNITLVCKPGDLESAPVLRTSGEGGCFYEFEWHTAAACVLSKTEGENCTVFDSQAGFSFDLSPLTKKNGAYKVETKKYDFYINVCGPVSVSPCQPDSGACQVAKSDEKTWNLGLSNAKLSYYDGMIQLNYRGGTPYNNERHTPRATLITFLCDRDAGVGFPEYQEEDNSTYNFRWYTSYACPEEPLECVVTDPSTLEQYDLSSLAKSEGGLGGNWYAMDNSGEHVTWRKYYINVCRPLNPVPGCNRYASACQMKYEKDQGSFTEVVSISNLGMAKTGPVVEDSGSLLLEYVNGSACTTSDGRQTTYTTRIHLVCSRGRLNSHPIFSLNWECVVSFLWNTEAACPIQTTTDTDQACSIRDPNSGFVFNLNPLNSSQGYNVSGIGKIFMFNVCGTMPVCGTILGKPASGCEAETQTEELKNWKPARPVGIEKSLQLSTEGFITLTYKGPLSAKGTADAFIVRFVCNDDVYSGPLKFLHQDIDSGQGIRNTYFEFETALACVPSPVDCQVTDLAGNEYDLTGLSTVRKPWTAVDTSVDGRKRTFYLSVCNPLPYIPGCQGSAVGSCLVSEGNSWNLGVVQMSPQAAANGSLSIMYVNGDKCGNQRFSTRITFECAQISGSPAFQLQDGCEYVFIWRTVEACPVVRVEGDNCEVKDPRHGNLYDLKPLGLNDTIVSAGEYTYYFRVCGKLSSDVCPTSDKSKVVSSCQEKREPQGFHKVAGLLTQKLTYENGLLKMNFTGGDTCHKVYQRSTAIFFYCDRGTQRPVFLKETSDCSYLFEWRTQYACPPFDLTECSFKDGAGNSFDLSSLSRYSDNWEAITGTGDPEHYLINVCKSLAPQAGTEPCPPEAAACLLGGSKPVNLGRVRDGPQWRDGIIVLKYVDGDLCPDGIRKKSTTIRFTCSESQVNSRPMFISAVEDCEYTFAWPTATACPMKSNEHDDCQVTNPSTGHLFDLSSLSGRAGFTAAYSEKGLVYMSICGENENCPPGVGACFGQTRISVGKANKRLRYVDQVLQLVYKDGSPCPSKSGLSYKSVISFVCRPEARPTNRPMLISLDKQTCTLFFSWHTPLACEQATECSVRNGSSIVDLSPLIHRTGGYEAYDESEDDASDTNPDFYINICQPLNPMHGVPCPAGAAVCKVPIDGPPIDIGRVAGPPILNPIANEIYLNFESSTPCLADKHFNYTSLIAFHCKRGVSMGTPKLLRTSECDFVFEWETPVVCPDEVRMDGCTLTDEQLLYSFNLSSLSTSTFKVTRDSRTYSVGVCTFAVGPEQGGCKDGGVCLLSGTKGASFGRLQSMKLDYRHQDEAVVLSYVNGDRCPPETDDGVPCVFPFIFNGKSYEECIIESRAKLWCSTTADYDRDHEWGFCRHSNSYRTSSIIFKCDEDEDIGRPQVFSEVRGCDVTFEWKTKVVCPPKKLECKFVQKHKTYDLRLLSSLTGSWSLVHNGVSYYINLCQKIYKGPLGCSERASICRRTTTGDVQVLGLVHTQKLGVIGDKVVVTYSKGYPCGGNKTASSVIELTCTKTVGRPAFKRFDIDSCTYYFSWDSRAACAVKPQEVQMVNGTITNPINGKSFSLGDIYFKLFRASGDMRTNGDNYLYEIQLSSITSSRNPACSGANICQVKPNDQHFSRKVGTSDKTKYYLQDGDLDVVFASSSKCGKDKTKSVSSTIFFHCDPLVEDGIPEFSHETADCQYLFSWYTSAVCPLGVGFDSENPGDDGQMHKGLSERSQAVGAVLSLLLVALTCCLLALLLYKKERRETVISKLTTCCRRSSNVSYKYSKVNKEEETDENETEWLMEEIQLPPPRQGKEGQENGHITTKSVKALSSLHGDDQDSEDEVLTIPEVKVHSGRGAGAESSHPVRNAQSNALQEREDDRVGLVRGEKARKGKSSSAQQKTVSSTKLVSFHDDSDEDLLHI
Excerpt: In addition to the animal studies an ELISA-type assay using purified M6P/IGF II (insulin-like growth factor II) receptor was developed to determine if these analogues of M6P bind to the M6P/IGF II receptor.

[3] = 7 days post wounding, 10, 20, 40 mM
[4] = 10, 20, 40 mM, F1P effect particularly at 40 mM

| SMILES | effect on wound healing (histological analysis) ([1]; 7 days post wounding) | immunocytochemical analysis (fibronectin staining, monocyte/macrophage profiles) [1, 3] | histological analysis ([1]; 10, 20, 40 mM) | scarring / dermal architecture (histology) [1, 4] | effect on wound healing (wounds) | effect on scarring (wounds) | also measured |
| --- | --- | --- | --- | --- | --- | --- | --- |
| O=C(COP(=O)(O)O)[C@@H](O)[C@H](O)[C@H](O)CO [F1P, fructose-1-phosphate] | neither F1P or Malt1P had any effect on wound healing | treated wounds resembled controls | inconsistent, with no clear trend | reduce scarring more significantly | – | – | – |
| O=C[C@H](O)[C@@H](O)[C@@H](O)[C@H](O)COP(=O)(O)O [Galactose-6-phosphate] | – | – | – | – | no effect | no effect | – |
| O=C[C@@H](O)[C@@H](O)[C@H](O)[C@H](O)COP(=O)(O)O [M6P, mannose-6-phosphate] | – | – | – | – | – | – | histological analysis of treated wounds vs PBS controls ([1]; 7 days post wounding, 10 or 20 mM, or 10 mM + 10 mM M6P, at wounding and each day for following two days): none of the treated wounds appeared different to PBS controls; scarring / dermal architecture (histology) ([1]; 10 or 20 mM, or 10 mM + 10 mM M6P, at wounding and each day for following two days, vs controls): improvement in scarring |
| O=P(O)(O)O[C@H]1O[C@H](CO)[C@@H](O[C@H]2O[C@H](CO)[C@@H](O)[C@H](O)[C@H]2O)[C@H](O)[C@H]1O [Malt1P, maltose-1-phosphate] | neither F1P or Malt1P had any effect on wound healing | treated wounds resembled controls | inconsistent, with no clear trend | improve the dermal architecture very slightly | – | – | binding to the M6P/IGF II receptor [2]: does not bind |
| O=P(O)(O)OCC(O)CO (stereo not drawn) [glycerol-3-phosphate] | – | – | – | – | no effect | no effect | – |
